# Legend:
# [1] = Cmax in cannulated Sprague-Dawley rat assessed as atazanavir level at 6 mg/kg equiv of atazanavir administered orally by UPLC/MS/MS analysis; assay type: ADME, organism-based; set-up: dose 6 mg/kg, route oral; conditions: in vivo, po
# [2] = AUClast in cannulated Sprague-Dawley rat assessed as atazanavir level at 6 mg/kg equiv of atazanavir administered orally by UPLC/MS/MS analysis; assay type: ADME, organism-based; set-up: dose 6 mg/kg, time 0 - last, route oral; conditions: in vivo, po
# [3] = AUClast in cannulated Sprague-Dawley rat assessed as atazanavir level at 30 mg/kg equiv of atazanavir administered orally by UPLC/MS/MS analysis; assay type: ADME, organism-based; set-up: dose 30 mg/kg, route oral, time 0 - last; conditions: in vivo, po
# [4] = Cmin in cannulated Sprague-Dawley rat assessed as atazanavir level at 3 mg/kg equiv of atazanavir administered orally measured after 24 hrs by UPLC/MS/MS analysis; assay type: ADME, organism-based; conditions: in vivo, po, BLD = below limit of detection
# [5] = Cmin in cannulated Sprague-Dawley rat assessed as atazanavir level at 6 mg/kg equiv of atazanavir administered orally measured after 24 hrs by UPLC/MS/MS analysis; assay type: ADME, organism-based; conditions: in vivo, po, BLD = below limit of detection
# [6] = Total AUC in cannulated Sprague-Dawley rat assessed as atazanavir level at 6 mg/kg equiv of atazanavir administered orally by UPLC/MS/MS analysis relative to atazanavir alone; assay type: ADME, organism-based; conditions: in vivo, po
# [7] = Total AUC in cannulated Sprague-Dawley rat assessed as atazanavir level at 30 mg/kg equiv of atazanavir administered orally by UPLC/MS/MS analysis relative to atazanavir alone; assay type: ADME, organism-based; conditions: in vivo, po
# [8] = Aqueous solubility of the compound in pH 3 buffer by RP-UPLC analysis; assay type: physicochemical
# [9] = Aqueous solubility of the compound in FaSSIF by RP-HPLC analysis; assay type: physicochemical
# [10] = Aqueous solubility of the compound in FeSSIF by RP-HPLC analysis; assay type: physicochemical
# [11] = Ratio of test compound to atazanavir aqueous solubility in pH 4 acetate buffer by RP-UPLC analysis; assay type: physicochemical
# [12] = Elimination half life in rat hepatocytes at 1 uM in absence of esterase inhibitor PMSF/CYP450 inhibitor ABT; assay type: ADME, cell-based, Hepatocyte; conditions: read-out: beta t1/2
# [13] = Elimination half life in rat hepatocytes at 1 uM in presence of CYP450 inhibitor ABT; assay type: ADME, cell-based, Hepatocyte; conditions: with ABT (CYP450 inhibitor), read-out: beta t1/2
# [14] = Drug recovery in mesenteric vein plasma of closed loop rat intestinal model at 1 mg/kg administered as cassette dose by LC/MS analysis; assay type: ADME, organism-based; conditions: in vivo
# [15] = Drug recovery in intestinal homogenates of closed loop rat intestinal model at 1 mg/kg administered as cassette dose by LC/MS analysis; assay type: ADME, organism-based, Intestine; conditions: intestinal homogenate, other: closed loop intestinal model, read-out: Drug recovery
# [16] = target: T1, UDP-glucuronosyltransferase 1A1 (Homo sapiens, UniProt P22309); assay: Inhibition of recombinant human UGT1A1 using bilirubin as substrate preincubated for 5 mins followed by substrate addition and measured after 40 mins by LC-MS/MS analysis; assay type: ADME
# T1 sequence (P22309 whole entry): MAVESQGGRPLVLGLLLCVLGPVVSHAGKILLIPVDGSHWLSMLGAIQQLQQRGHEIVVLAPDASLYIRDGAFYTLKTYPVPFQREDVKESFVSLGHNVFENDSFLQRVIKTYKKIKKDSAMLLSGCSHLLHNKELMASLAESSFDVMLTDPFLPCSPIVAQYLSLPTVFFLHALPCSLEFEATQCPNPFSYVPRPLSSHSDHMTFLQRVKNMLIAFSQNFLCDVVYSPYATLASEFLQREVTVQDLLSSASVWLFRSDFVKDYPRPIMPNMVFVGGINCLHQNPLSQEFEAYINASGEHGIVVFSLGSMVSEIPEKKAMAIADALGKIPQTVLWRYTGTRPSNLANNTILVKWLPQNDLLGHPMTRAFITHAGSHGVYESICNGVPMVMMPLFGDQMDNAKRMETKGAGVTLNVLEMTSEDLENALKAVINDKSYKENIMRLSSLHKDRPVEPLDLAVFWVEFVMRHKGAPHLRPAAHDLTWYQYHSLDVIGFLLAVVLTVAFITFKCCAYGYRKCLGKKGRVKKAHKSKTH
# [17] = target: T1, UDP-glucuronosyltransferase 1A1; assay: Inhibition of UGT1A1 in human liver microsomes using beta-estradiol as substrate preincubated for 5 mins followed by substrate addition and measured after 40 mins by LC-MS/MS analysis; assay type: ADME
# [18] = target: T2, UDP-glucuronosyltransferase 1A1 (Rattus norvegicus, UniProt Q64550); assay: Inhibition of UGT1A1 in rat liver microsomes using beta-estradiol as substrate preincubated for 5 mins followed by substrate addition and measured after 40 mins by LC-MS/MS analysis; assay type: ADME
# T2 sequence (Q64550 whole entry): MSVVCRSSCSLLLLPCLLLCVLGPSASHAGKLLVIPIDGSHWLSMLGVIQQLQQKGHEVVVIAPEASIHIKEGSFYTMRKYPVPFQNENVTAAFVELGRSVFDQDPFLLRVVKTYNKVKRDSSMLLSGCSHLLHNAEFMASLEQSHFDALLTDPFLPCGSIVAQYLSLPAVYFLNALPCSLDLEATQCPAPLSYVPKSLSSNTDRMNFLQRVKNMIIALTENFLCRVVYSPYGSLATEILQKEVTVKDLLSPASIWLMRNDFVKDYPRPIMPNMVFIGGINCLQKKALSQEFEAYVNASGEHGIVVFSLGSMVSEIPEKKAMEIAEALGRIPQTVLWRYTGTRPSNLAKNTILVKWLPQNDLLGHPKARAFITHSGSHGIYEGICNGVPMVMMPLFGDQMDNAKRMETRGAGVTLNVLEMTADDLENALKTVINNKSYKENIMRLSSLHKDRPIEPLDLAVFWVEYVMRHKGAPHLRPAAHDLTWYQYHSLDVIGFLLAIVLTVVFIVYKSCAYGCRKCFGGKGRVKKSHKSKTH
# UGT1A1 [19] = target: T3, UGT1A1 (Homo sapiens, UniProt P22309); assay: Ratio of test compound IC50 to atazanavir IC50 for recombinant human UGT1A1; assay type: ADME; conditions: read-out: Ratio IC50
# T3 sequence (P22309 whole entry): T1 sequence (P22309 whole entry)
# UGT1A1 [20] = target: T3, UGT1A1; assay: Ratio of test compound IC50 to atazanavir IC50 for UGT1A1 in human liver microsomes; assay type: ADME; conditions: read-out: Ratio IC50
# UGT1A1 [21] = target: T4, UGT1A1 (Rattus norvegicus, UniProt Q64550); assay: Ratio of test compound IC50 to atazanavir IC50 for UGT1A1 in rat liver microsomes; assay type: ADME; conditions: read-out: Ratio IC50
# T4 sequence (Q64550 whole entry): T2 sequence (Q64550 whole entry)
# Protease = Protease (Human immunodeficiency virus 1, UniProt Q9YQ12)
# Description: Inhibition of HIV1 protease activity
# [22] = rat, in vivo, po, 3 mg/kg
# [23] = rat, in vivo, po, 3 mg/kg; remark: listed apart in the source
# Description: AUClast in cannulated Sprague-Dawley rat assessed as atazanavir level at 3 mg/kg equiv of atazanavir administered orally by UPLC/MS/MS analysis
# [24] = tested on: Human immunodeficiency virus 1
# Description: Antiviral activity against HIV1 NL4-3 infected in human MT2 cells assessed as reduction in viral yield measured after 4 days by EnduRen live cell substrate based luciferase reporter gene assay
# physchem [25] = conditions: 30% CH3CN/HCl buffer, pH 1
# Description: Half life in pH 1 30%CH3CN/HCl buffer at 50 mM by RP-UPLC analysis
# physchem [26] = conditions: 30% CH3CN/acetate buffer, pH 4
# Description: Half life in pH 4 30%CH3CN/acetate buffer at 50 mM by RP-UPLC analysis
# physchem [27] = conditions: acetate buffer, pH 4
# Description: Aqueous solubility of the compound in pH 4 acetate buffer by RP-UPLC analysis
# physchem [28] = conditions: phosphate buffer, pH 7.4
# Description: Aqueous solubility of the compound in pH 7.4 phosphate buffer by RP-UPLC analysis
# in vitro [29] = conditions: human, Caco-2
# Description: Apparent permeability across basolateral to apical side in human Caco2 cells at 2 uM
# in vitro [30] = conditions: human, Caco-2; remark: listed apart in the source
# Description: Efflux ratio of apparent permeability across basolateral to apical side over apical to basolateral side in human Caco2 cells
# Chain of Protease (Q9YQ12 whole entry): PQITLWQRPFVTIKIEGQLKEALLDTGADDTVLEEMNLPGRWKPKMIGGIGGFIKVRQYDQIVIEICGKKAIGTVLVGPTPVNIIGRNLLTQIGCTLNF
structure (smiles),measurement,setting,value
COC(=O)N[C@H](C(=O)N[C@@H](Cc1ccccc1)[C@H](CN(Cc1ccc(-c2ccccn2)cc1)NC(=O)[C@@H](NC(=O)OC)C(C)(C)C)OC(=O)[C@@H](N)Cc1ccccc1)C(C)(C)C,Cmax,[1],550 nM
same,AUClast,[2],913 nM·h
same,AUClast,[3],19.67 µM·h
same,Cmin,[4],Bld
same,Cmin,[5],Bld
same,fold change (FC),[6],4.1
same,fold change (FC),[7],65.3
same,solubility,[8],> 3200 µg/mL
same,solubility,[9],130 µg/mL
same,solubility,[10],> 500 µg/mL
same,Ratio,[11],4100
same,half-life at 1 µM,[12],42 min
same,half-life at 1 µM,[13],> 120 min
same,Drug recovery,[14],2.8%
same,recovery,[15],5.6%
same,IC50,[16],2800 nM
same,IC50,[17],2500 nM
same,IC50,[18],19.5 µM
same,selectivity ratio,UGT1A1 [19],9.3
same,selectivity ratio,UGT1A1 [20],4.2
same,selectivity ratio,UGT1A1 [21],5.7
same,IC50,Protease,4 to 1140 nM
same,Tmax,[22],30 min
same,AUClast,[23],573 nM·h
same,EC50,[24],0.9 to 1250 nM
same,half-life at 50000 µM,physchem [25],> 20.8 days
same,half-life at 50000 µM,physchem [26],> 20.8 days
same,solubility,physchem [27],1100 to 4100 µg/mL
same,solubility,physchem [28],1 µg/mL
same,Papp B→A at 2 µM,in vitro [29],13.1 ×10⁻⁶ cm/s
same,efflux ratio,in vitro [30],> 8.7

# From ChEMBL document CHEMBL4390686, “Design, Synthesis, and Pharmacokinetic Evaluation of Phosphate and Amino Acid Ester Prodrugs for Improving the Oral Bioavailability of the HIV-1 Protease Inhibitor Atazanavir” (J Med Chem, 2019)
